15 molecules from PubChem BioAssay (NCI) can be followed below.

By TGI is commonly meant the concentration giving total growth inhibition. A high value points to less potent growth arrest. A word on the GI50: it is the concentration giving 50% growth inhibition.

Test systems include RXF 393 renal; MALME-3M melanoma; LOX IMVI melanoma; U251 CNS; SF-295 CNS; NCI-H23 lung; HCT-116 colon; CCRF-CEM leukemia; A549 NSCLC.
Experiment in all cases: DTP human tumour cell line panel, 48 h

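Where inhibition never reached the appropriate level, the endpoint shown equals the highest concentration tested. Otherwise, values were interpolated linearly from a five-concentration, 48-hour dose response in 96-well plates. At the GI50, growth is halved. At the TGI there is no net growth.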 *1 amine or outer side, *2 acyl side, *3 side chain or, on linkers, in order; H or OH if unused. Where a SMILES comes first, the peptide text is derived from it. CO = O=C([*:1])[*:2] Where only a bound is given, the exact number is not on record here.

In the case of `CCC12CC[C@H](C#N)N3CCc4c(n(c5ccccc45)C(=O)C1)C32` (stereo partly drawn), the TGI was found to be 29.6 µM in the assay with RXF 393 renal; 19.3 µM with MALME-3M melanoma; 27.3 µM in the assay with LOX IMVI melanoma; 29.8 µM in the assay with U251 CNS; 31.2 µM in the assay on SF-295 CNS; 41.8 µM with NCI-H23 lung. For the same molecule, the concentration for total growth inhibition (TGI) in the assay on HCT-116 colon is 26.8 µM; in the assay with CCRF-CEM leukemia it was 44.3 µM; in the assay with A549 NSCLC, 61.3 µM.

As for `Cc1ccc(-c2nc3nc(-c4ccc(Cl)cc4)nc(N4CCCNCC4)c3o2)cc1`, the GI50 with RXF 393 renal is 1.58 µM; in the assay on MALME-3M melanoma, 1.7 µM; in the assay with LOX IMVI melanoma it was 1.63 µM; in the assay on U251 CNS it was 1.85 µM; in the assay with SF-295 CNS, 1.82 µM; with NCI-H23 lung it was 1.83 µM. For the same molecule, the GI50 with HCT-116 colon was 1.53 µM; in the assay on CCRF-CEM leukemia it was 0.7 µM; in the assay on A549 NSCLC, 1.91 µM. In addition, the TGI was 3.03 µM with RXF 393 renal; 3.17 µM in the assay on MALME-3M melanoma; 3.15 µM in the assay with LOX IMVI melanoma; 3.55 µM in the assay on U251 CNS; 3.39 µM in the assay with SF-295 CNS; 3.41 µM in the assay with NCI-H23 lung. Besides, the figures for the TGI in the assay with HCT-116 colon, in the assay with CCRF-CEM leukemia and in the assay on A549 NSCLC were 2.94 µM, 2.91 µM and 3.83 µM, respectively.

Consider `CC(C)C(NC(=O)C(CCCN=C(N)N)NC(=O)NC(Cc1ccccc1)C(=O)O)C(=O)NC(C=O)CCCN=C(N)N` (stereo not drawn) ({Phe-CO}-Arg-Val-Arg-aldehyde; configuration not given here), for which the GI50 in the assay on MALME-3M melanoma, with LOX IMVI melanoma, with U251 CNS, in the assay with SF-295 CNS, in the assay on NCI-H23 lung and with HCT-116 colon was more than 5 µM throughout. The GI50 in the assay with A549 NSCLC was more than 5 µM. In addition, the concentration for total growth inhibition (TGI) in the assay on MALME-3M melanoma, with LOX IMVI melanoma, in the assay on U251 CNS, in the assay with SF-295 CNS, in the assay on NCI-H23 lung and with HCT-116 colon was more than 5 µM in each case. The molecule also gave a TGI with A549 NSCLC of more than 5 µM.

Regarding `CCCCCCCCO/N=C\c1c2c(O)c3c(O)c(C)c4c(c3c1O)C(=O)C(C)(O/C=C\C(OC)C(C)C(OC(C)=O)C(C)C(O)C(C)C(O)C(C)/C=C\C=C(\C)C(=O)N2)O4` (stereo not drawn), the GI50 is 1.14 µM in the assay with RXF 393 renal; 1.53 µM with LOX IMVI melanoma; 1.14 µM with U251 CNS; 0.953 µM with SF-295 CNS; 1.74 µM with NCI-H23 lung; 1.06 µM in the assay with HCT-116 colon. Besides, the GI50 in the assay with CCRF-CEM leukemia was 1.95 µM; in the assay with A549 NSCLC it was 1.73 µM. Also, the TGI stood at 3.18 µM with RXF 393 renal; 5.6 µM in the assay with LOX IMVI melanoma; 3.03 µM with U251 CNS; 2.56 µM in the assay on SF-295 CNS; 6.55 µM in the assay with NCI-H23 lung; 2.19 µM in the assay on HCT-116 colon. Also, the TGI with CCRF-CEM leukemia was determined as 9.82 µM; with A549 NSCLC, 6.42 µM.

On to `COc1ccc(C2c3cc4c(cc3OC(O)(CO)C2C(=O)O)OCO4)c(OC)c1OC` (stereo not drawn) (tested in a mixture with another compound), for which the concentration for total growth inhibition (TGI) with RXF 393 renal, in the assay on MALME-3M melanoma, with LOX IMVI melanoma, with U251 CNS, in the assay on SF-295 CNS and in the assay on NCI-H23 lung was more than 100 µM in each case. The TGI in the assay on HCT-116 colon, with CCRF-CEM leukemia and in the assay with A549 NSCLC was more than 100 µM throughout.

As for `N#Cc1c(N)nc(N2CCOCC2)c(C#N)c1-c1cccc(O)c1`, the GI50 in the assay on RXF 393 renal is 38.1 µM; with LOX IMVI melanoma it was more than 100 µM; in the assay with U251 CNS, more than 100 µM; in the assay on SF-295 CNS it was more than 100 µM; in the assay on NCI-H23 lung it was 54.8 µM; in the assay with HCT-116 colon, more than 100 µM. The GI50 in the assay on CCRF-CEM leukemia and in the assay on A549 NSCLC was more than 100 µM throughout. Moreover, the TGI with RXF 393 renal was 95.1 µM; in the assay with LOX IMVI melanoma, more than 100 µM; in the assay on U251 CNS, more than 100 µM; in the assay with SF-295 CNS, more than 100 µM; in the assay on NCI-H23 lung, more than 100 µM; with HCT-116 colon, more than 100 µM. Further, the TGI in the assay on CCRF-CEM leukemia and in the assay with A549 NSCLC was more than 100 µM in each case.

Consider `N#Cc1c(C(N)=O)ncn1Cc1ccccc1`, for which the concentration for total growth inhibition (TGI) with RXF 393 renal, in the assay with MALME-3M melanoma, with LOX IMVI melanoma, in the assay on U251 CNS, in the assay on SF-295 CNS and in the assay with NCI-H23 lung was more than 100 µM throughout. The total growth inhibition concentration (TGI) in the assay on HCT-116 colon, with CCRF-CEM leukemia and in the assay on A549 NSCLC was more than 100 µM in each case.

`Cn1cc(C(=O)/C(Cl)=C(\Cl)C(=O)O)c2ccccc21`: the total growth inhibition concentration (TGI) in the assay on RXF 393 renal, in the assay on MALME-3M melanoma, in the assay with U251 CNS, in the assay with SF-295 CNS, in the assay with NCI-H23 lung and in the assay on HCT-116 colon was more than 100 µM throughout. Also, the concentration for total growth inhibition (TGI) in the assay with CCRF-CEM leukemia and in the assay on A549 NSCLC was more than 100 µM in each case.

Regarding `COc1cc2c(cc1OCCCCCN1CCN(c3cc(=O)oc4c(C)c(OC)ccc34)CC1)N=C[C@@H]1CCCN1C2=O`, the GI50 in the assay on RXF 393 renal is less than 0.01 µM; in the assay on MALME-3M melanoma, 0.0182 µM; in the assay with U251 CNS, less than 0.01 µM; in the assay with SF-295 CNS, less than 0.0139 µM; with NCI-H23 lung it was less than 0.0122 µM; in the assay with CCRF-CEM leukemia, less than 0.01 µM. For the same molecule, the GI50 with A549 NSCLC is 0.0211 µM. In addition, the total growth inhibition concentration (TGI) was less than 0.0127 µM with RXF 393 renal; 0.0531 µM in the assay on MALME-3M melanoma; 0.585 µM with U251 CNS; 2.42 µM in the assay with SF-295 CNS; 0.137 µM in the assay on NCI-H23 lung; 0.106 µM in the assay with CCRF-CEM leukemia. Moreover, in the assay on A549 NSCLC, the TGI was found to be 15.4 µM.

On to `C/C(=N\[N+](C)(C)C)C(c1ccccc1)C1(c2ccccc2)C(c2ccccc2)=C1c1ccccc1` (stereo not drawn), for which the TGI is 73 µM in the assay with RXF 393 renal; more than 100 µM with MALME-3M melanoma; more than 100 µM with LOX IMVI melanoma; more than 100 µM with U251 CNS; more than 100 µM in the assay with SF-295 CNS; more than 100 µM with NCI-H23 lung. The TGI in the assay on HCT-116 colon, in the assay with CCRF-CEM leukemia and in the assay on A549 NSCLC was more than 100 µM throughout.

With `NC1=NN(c2ccccc2)C(=O)C1C(=O)C(=O)Nc1cccc(C(F)(F)F)c1` (stereo not drawn), the TGI in the assay on MALME-3M melanoma, in the assay with LOX IMVI melanoma, with U251 CNS, in the assay on SF-295 CNS, in the assay on NCI-H23 lung and in the assay on HCT-116 colon was more than 100 µM throughout. For the same molecule, the TGI in the assay with CCRF-CEM leukemia and with A549 NSCLC was more than 100 µM each time.

Turning to `O=C(/C=C\c1cccc2ccccc12)c1ccc(Br)cc1`, the TGI in the assay with MALME-3M melanoma was 81.6 µM; with U251 CNS, 29.6 µM; in the assay on SF-295 CNS, 46.5 µM; in the assay on NCI-H23 lung it was more than 100 µM; in the assay on HCT-116 colon it was 30.3 µM; in the assay on CCRF-CEM leukemia, 50.6 µM. In the assay with A549 NSCLC, the concentration for total growth inhibition (TGI) is more than 100 µM.

Regarding `COc1ccc2c(c1)C(=O)c1c-2c(N2CCN(C(=O)CN(C)C)CC2)nc2ccccc12`, the GI50 in the assay on MALME-3M melanoma was 23 µM; in the assay on LOX IMVI melanoma it was 12.3 µM; in the assay on U251 CNS, 14.9 µM; in the assay on SF-295 CNS, 13.7 µM; in the assay on HCT-116 colon, 11.6 µM; with CCRF-CEM leukemia it was 10.7 µM. The GI50 in the assay on A549 NSCLC was 13.8 µM. In addition, the TGI with MALME-3M melanoma came out at 58.1 µM; with LOX IMVI melanoma, 33.6 µM; with U251 CNS it was 30.6 µM; in the assay with SF-295 CNS, 41 µM; in the assay with HCT-116 colon it was 26.3 µM; with CCRF-CEM leukemia, 27.1 µM. Further, in the assay on A549 NSCLC, the total growth inhibition concentration (TGI) was found to be 37 µM.

As for `CC1(C)OC(=O)C=C(O)O1.CC1(C)OC(=O)C=C(O)O1.CCO.Oc1ccc2c(c1)CCC2.[Ti]`, the GI50 in the assay on RXF 393 renal, in the assay with MALME-3M melanoma, in the assay on LOX IMVI melanoma, in the assay on SF-295 CNS, in the assay with NCI-H23 lung and in the assay with HCT-116 colon was more than 100 µM throughout. The GI50 with CCRF-CEM leukemia and in the assay on A549 NSCLC was more than 100 µM in each case. The TGI in the assay on RXF 393 renal, in the assay with MALME-3M melanoma, in the assay on LOX IMVI melanoma, in the assay with SF-295 CNS, with NCI-H23 lung and with HCT-116 colon was more than 100 µM throughout. For the same molecule, the concentration for total growth inhibition (TGI) with CCRF-CEM leukemia and in the assay on A549 NSCLC was more than 100 µM each time.

Turning to `COc1cc(C(=O)O)ccc1NC(=O)[C@@H]1N[C@@H](CC(C)(C)C)[C@](C#N)(c2ccc(Cl)cc2F)[C@H]1c1cccc(Cl)c1F`, the GI50 with RXF 393 renal was 3.55 µM; in the assay on MALME-3M melanoma, 0.0448 µM; in the assay with LOX IMVI melanoma it was 0.148 µM; with U251 CNS, 3.16 µM; in the assay on SF-295 CNS, 2.78 µM; in the assay with NCI-H23 lung, 5.47 µM. Also, the GI50 in the assay on CCRF-CEM leukemia was 2.53 µM; with A549 NSCLC, 0.138 µM. Moreover, the TGI with RXF 393 renal worked out at 10.3 µM; in the assay on MALME-3M melanoma it was 8.27 µM; in the assay with LOX IMVI melanoma it was 6.84 µM; with U251 CNS, 11 µM; in the assay on SF-295 CNS it was 8.64 µM; with NCI-H23 lung, 19.5 µM. The figures for the TGI with CCRF-CEM leukemia and in the assay with A549 NSCLC were more than 26.3 µM and 8.21 µM, respectively.
